Experimental data as given in patent publication US10288626B2, “Secreted tumor-associated cytochrome as a blood-based biomarker for cancer” (University of Kentucky Research Foundation, priority 2012, dated 2019).

Legend:
tumor cells = settings: cited from earlier work
EGFR = settings: cited from earlier work
NCI-H226 cells = assay: Viability / growth of NCI-H226 squamous cell lung cancer cells treated with AG-205; type: cell-based; settings: 96 hours
Protocol: FIG. 2 depicts Pgrmc1 expression and biological activity in SCLC cell lines. (A) Pgrmc1 expression was tested in a group of 3 commonly used SCLC cell lines (upper panel), and ku70 was used as a loading control (lower panel). […] Cells were maintained in medium lacking serum for the indicated time and in all cases, viability was determined by cell counting. (C) Pgrmc1 expression was inhibited by siRNA transfection (upper panel, lane 2) relative to the control transfection (upper panel, lane 1). […] Cells were maintained in media lacking serum for the indicated times. (E) The expression of the exogenous Pgrmc1-hbd protein was detected by western blot in NCI-H226 cells infected with a control adenovirus (lane 1), encoding LacZ, or the Pgrmc1-hbd expression virus (lane 2). The top panel was probed with an antibody to the HA epitope tag sequence, with which Pgrmc1-hbd is fused. (F) NCI-H226 cells were treated with increasing doses of the Pgrmc1 inhibitor AG-205 and maintained with serum (dashed line) or without serum (solid line) for 96 hours.
Tissue culture: […], SK-MES-1 and SW900 squamous cell lung cancer cells and A549 lung adenocarcinoma cells were obtained from the American type culture collection (ATCC) and cultured according to their instructions. The identities of the cell lines were confirmed by Genetica DNA Laboratories (Cincinnati, Ohio). […]
Conditioned media from control and Pgrmc1 knockdown A549 NSCLC cells were generated by incubating cells in serum-free DMEM media for 24 hours. […] For fluorescent activated cell sorting (FACS), cells were stained with propidium iodide and analyzed as described (Mallory et al., Mol Pharmacol 2005, 68: 1747-56). […] For viability assays, cells were plated in 24 well dishes, washed with PBS and harvested by trypsinization and counted using a hemocytometer. Where indicated, cells were plated in 96 well dishes, and viability was measured by 3-(4,5-Dimethylthiazol-2-yl)-2,5-diphenyltetrazolium bromide (MTT) assay, as described (Hand and Craven. J Cell Biochem 2003, 90:534-47).

SMILES: Cc1ccc2c(c1)[C@H]1CN(C)CC[C@H]1N2C(=O)CSc1nnnn1-c1ccc(Cl)cc1 [AG-205]
- effect on growth in tumor cells (tumor cells): inhibits growth
- effect on EGFR levels (EGFR): decreases EGFR levels
- IC50 (NCI-H226 cells; absence of serum, read-out: IC50, growth inhibition of NCI-H226 cells): 9 µM
- effect on viability of NCI-H226 cells (NCI-H226 cells; absence of serum, increasing doses): loss of viability
- activity on growth of NCI-H226 cells (NCI-H226 cells; presence of serum): minimal activity
